Patent US10894948B2, “Resetting pluripotent stem cells” (CAMBRIDGE ENTERPRISE LIMITED, priority 2014, dated 2021)

Experiments:
[1] = tested on: HNES cells; assay: Colony formation of HNES cells in 2-deoxyglucose; format: cell-based, human; conditions: HNES cells versus HNES-primed cells
Text: Primed PSC rely on anaerobic glycolysis with very low mitochondrial respiration capacity (Zhou et al., 2012). […] We evaluated the capacity of HNES cells to form colonies in the presence of the glycolysis inhibitor 2-deoxyglucose. […] HNES cells also stained intensely with MitoProbe™ DilC1, reflecting mitochondrial membrane potential (not shown).

[2] = tested on: reset cells and conventional PSC; assay: Proliferation / colony formation in 2-deoxyglucose; format: cell-based, human; conditions: reset cells in contrast to conventional PSC, 7 days
Procedure: C & D. Proliferation in 2-deoxyglucose. After single cell dissociation, 3×10^4 cells were seeded on 12 wells and cultured for 7 days with indicated concentrations of 2-deoxyglucose (2DG) or reduced glucose. ROCKi was added to conventional PSC.
We examined functional consequences of altered metabolic properties by culture in 2-deoxyglucose to inhibit glycolysis and in reduced concentrations of glucose to increase dependency on mitochondrial respiration.

## O=CC[C@@H](O)[C@H](O)[C@H](O)CO [2-deoxyglucose]
[1]
  colony formation in the presence of 2-deoxyglucose: Undifferentiated HNES cells readily formed colonies while HNES-primed cells did not survive
[2]
  colony formation in the presence of 2-deoxyglucose: reset cells formed undifferentiated colonies
